Structures are written as SMILES. Bounds are passed on as bounds.

The target in this assay is T1, full length active recombinant SYK enzyme (Homo sapiens, UniProt P43405).
T1 construct: full length active recombinant SYK enzyme (Millipore, Calif.); purchased Millipore
Kind of assay: Inhibition of Syk tyrosine phosphorylation activity (LANCE TR-FRET kinase assay). It counts as biochemical. The text has this:
This example illustrates methods for evaluating the compounds of the invention, along with results obtained for such assays. The in vitro and in vivo human Syk activities of the inventive compounds can be determined by various procedures known in the art, such as a test for their ability to inhibit the activity of human plasma Syk. […] The IC50 value is the concentration (in nM) of the compound required to provide 50% inhibition of human Syk proteolytic activity.
Potency of candidate molecules for inhibiting Syk tyrosine phosphorylation activity is assessed by measuring the ability of a test compound to inhibit Syk-mediated tyrosine phosphorylation of a Syk-specific substrate.
SYK tyrosine phosphorylation activity is measured using the LANCE™ Technology developed by Perkin Elmer Life and Analytical Sciences (Boston, Mass.). LANCE™ refers to homogeneous time resolved fluorometry applications using techniques such as time-resolved fluorescence resonance energy transfer assay (TR-FRET) (see generally for procedures in Perkin Elmer Application Note—How to Optimize a Tyrosine Kinase Assay Using Time Resolved Fluorescence-Based LANCE Detection, wwww.perkinelmer.com/lifesciences). The assay principle involves detection of a phosphorylated substrate using energy transfer from a phosphospecific europium-labeled antibody to streptavidin-allophycocyanin as an acceptor.
To test the ability of candidate molecules to inhibit SYK tyrosine phosphorylation activity, molecules are reconstituted in 30% DMSO and serially diluted 1:3 with the final dilution containing DMSO in the absence of the candidate molecule. The final DMSO concentration in the assay is 3%. Kinase assays are performed as a two part reaction. The first reaction is a kinase reaction and which comprises of a candidate molecule, full length active recombinant SYK enzyme (Millipore, Calif.) and biotin-labeled SYK-specific substrate biotin-[…]-OH. The second reaction involves termination of the kinase reaction and the simultaneous addition of the detection reagents-europium-labeled anti-phosphotyrosine reagent (Eu-W1024-PY100, Perkin Elmer, Boston, Mass.) and Streptavidin-Allophycocyanin detection reagent (SA-APC, Prozyme, Calif.). The kinase reaction is performed in a black U-bottom 96-well microtitre plate. The final reaction volume is 50 μL and contains a final concentration of 1 nM active SYK enzyme, 550 nM SYK-substrate, and 100 μM ATP diluted in a buffer containing 50 mM Tris pH 7.5, 5 mM MgCl2, and 1 mM DTT. The reaction is allowed to proceed for 1 hour at room temperature. The quench buffer contains 100 mM Tris pH 7.5, 300 mM NaCl2, 20 mM EDTA, 0.02% Brij35, and 0.5% BSA. The detection reagents are added to the reaction mixture at the following dilutions-1:500 for Eu-W1024-PY100 and 1:250 for SA-APC. The kinase reaction is terminated by the addition of 50 μL quench buffer containing the detection reagents. The detection is allowed to proceed for 1 hr at room temperature. Detection of the phosphorlated substrate in the absence and presence of inhibitors is measured in the TR-FRET instrument, Analyst HT (Molecular Probes, Sunnyvale, Calif.) and the condition for measurements are set up using CriterionHost Release 2.0 (Molecular Probes, Sunnyvale, Calif.). The settings used are a follows: excitation 360 nm, emission 665-7.5 nm, beam splitter 350 nm 50/50, flash 100 pulses, delay 60 us, integration 400 us, z-height 2 mm. Inhibition of SYK-tyrosine kinase activity is calculated as the maximum response observed in the presence of inhibitor, compared to that in the absence of inhibitor. IC50s were derived by non-linear regression analysis.
(In general: Time-resolved FRET reads energy transfer from a long-lived donor to a nearby acceptor.)
By IC50 is commonly meant the concentration at which inhibition is half-maximal. Consider `Cc1cccc(Nc2nc(Nc3ccc(S(N)(=O)=O)cc3)nc(O)c2C(N)=O)c1` [Example 63, 4-(4-(3-methylphenylamino)-5-carboxamide-6-oxo-1,6-dihydropyrimidin-2-ylamino)benzenesulfonamide], for which the IC50 lay in the range of 100 to 1000 nM.

For `CC(=O)N1CCN(c2ccc(Nc3nc(Nc4cc(C)cc(C)c4)c(C(N)=O)c(=O)[nH]3)cc2)CC1` [Example 59, 2-(4-(4-acetylpiperazin-1-yl)phenylamino)-4-(3,5-dimethylphenylamino)-6-oxo-1,6-dihydropyrimidine-5-carboxamide], the IC50 was greater than 1000 nM.

As to `CC(=O)N1CCN(c2ccc(Nc3nc(NC4CC4)c(C(N)=O)c(=O)[nH]3)cc2)CC1` [Example 62, 2-(4-(4-acetylpiperazin-1-yl)phenylamino)-4-(cyclopropylamino)-6-oxo-1,6-dihydropyrimidine-5-carboxamide], the IC50 was greater than 1000 nM.

As for `CNC(=O)[C@@H](CC(C)C)Nc1nc(Nc2cccc(-c3ccccn3)c2)c(C(N)=O)c(=O)[nH]1` [Example 100, (R)-2-(4-methyl-1-(methylamino)-1-oxopentan-2-ylamino)-6-oxo-4-(3-(pyridin-2-yl)phenylamino)-1,6-dihydropyrimidine-5-carboxamide], the IC50 was greater than 1000 nM.

Regarding `CC(C)C[C@@H](Nc1nc(Nc2ccc3cccnc3c2)c(C(N)=O)c(=O)[nH]1)C(N)=O` [Example 107, (R)-2-(1-amino-4-methyl-1-oxopentan-2-ylamino)-6-oxo-4-(quinolin-7-ylamino)-1,6-dihydropyrimidine-5-carboxamide], the IC50 lay in the range of 1 to 10 nM.

On to `CC[C@@H](Nc1nc(Nc2cccc(-n3cccn3)c2)c(C(N)=O)c(=O)[nH]1)C(N)=O` [Example 34], for which the IC50 was 1 to 10 nM.

For `CC(=O)N1CCN(c2ccc(Nc3nc(Nc4ccc(N5CCN(C(C)=O)CC5)cc4)c(C(N)=O)c(=O)[nH]3)cc2)CC1` [Example 46, 2,4-bis(4-(4-acetylpiperazin-1-yl)phenylamino)-6-oxo-1,6-dihydropyrimidine-5-carboxamide], the IC50 was greater than 1000 nM.

In the case of `C[C@H](N)CNc1nc(Nc2ccc3ncccc3c2)c(C(N)=O)c(=O)[nH]1` [Example 51, (S)-2-(2-aminopropylamino)-6-oxo-4-(quinolin-6-ylamino)-1,6-dihydropyrimidine-5-carboxamide], the IC50 lay within 1 to 10 nM.

For the molecule `CC(=O)N1CCN(c2ccc(Nc3nc(O)c(C(N)=O)c(Nc4cccc(C)c4)n3)cc2)CC1` [Example 64, 4-(m-toluidino)-2-(4-(4-acetylpiperazin-1-yl)phenylamino)-6-hydroxypyrimidine-5-carboxamide], the IC50 was greater than 1000 nM.

As for `COc1nc(N[C@@H](C(N)=O)c2ccccc2)nc(Nc2cc(C)cc(C)c2)c1C(N)=O` [Example 72, (R)-2-(2-amino-2-oxo-1-phenylethylamino)-4-(3,5-dimethylphenylamino)-6-methoxypyrimidine-5-carboxamide], the IC50 was 100 to 1000 nM.

On to `COc1nc(Nc2ccc(N3CCOCC3)cc2)nc(Nc2cccc(C)c2)c1C(N)=O` [Example 70, 4-(m-toluidino)-6-methoxy-2-(4-morpholinophenylamino)pyrimidine-5-carboxamide], for which the IC50 was greater than 1000 nM.

As for `COc1nc(Nc2ccc(N3CCOCC3)cc2)nc(NC2CC2)c1C(N)=O` [Example 73, 4-(cyclopropylamino)-6-methoxy-2-(4-morpholinophenylamino)pyrimidine-5-carboxamide], the IC50 is greater than 1000 nM.

Consider `CC[C@@H](Nc1nc(Nc2cccc(OC(F)F)c2)c(C(N)=O)c(=O)[nH]1)C(N)=O` [Example 88, (R)-2-(1-amino-1-oxobutan-2-ylamino)-4-(3-(difluoromethoxy)phenylamino)-6-oxo-1,6-dihydropyrimidine-5-carboxamide], for which the IC50 was in the range of 1 to 10 nM.

For the molecule `NC(=O)c1c(Nc2cccc(-n3nccn3)c2)nc(N[C@@H]2CCCC[C@@H]2N)[nH]c1=O` [Example 5], the IC50 is 1 to 10 nM.

The record behind these values is patent publication US20130317029A1 (PORTOLA PHARMACEUTICALS, INC., priority 2010, published 2013).
